Measured values published in US20240270762A1, “PENICILLIN-BINDING PROTEIN INHIBITORS” (priority 2021, published 2024).
pIC50: −log10 of the molar value. In brackets after ≈: the same amount, converted by molar mass.

Legend:
N. gonorrhoeae WHO G = experiment: Liquid broth MIC in Fastidious broth; settings: Neisseria gonorrhoeae, read-out: Minimum Inhibitory Concentration (MIC), N. gonorrhoeae WHO G
Procedure: Additional antibacterial testing of the series was performed in 8 reference strains of N. gonorrhoeae (ATCC 49226, FA1090, MS 11, WHO G, WHO L, WHO M, WHO K, WHO X, WHO Z, WHO Q, CDC-0197). ATCC 49226, FA1090, MS11, WHO G, WHO L, and WHO M produce wild type or wild-type like PBP2. WHO K, WHO X, WHO Z, WHO Q, and CDC-0197 produce mosaic PBP2. Liquid broth-based assays were used for antibacterial testing of PBP inhibitors in Neisseria gonorrhoeae. Briefly, cryo-preserved bacterial cultures of clinical strains were streaked for isolation on Chocolate Agar (72 g/L (2×) GC Agar Base (BD #228950) and 2% (2×) Hemoglobin was autoclaved at 121° C. for 20 minutes to sterilize. Once cooled to ˜50° C. the 2×GC Agar Base and 2× Hemoglobin solutions are combined and 1% IsoVitaleX Enrichment (BD #211876) was added to the solution). Strains were incubated at 36° C. and 5% CO2 to allow growth of colonies, 24 hours before inoculum preparation. 2-fold serial dilutions of test compounds were conducted in a 96 well plate with a final volume of 75 μL per well at 2-fold the final desired concentration in Fastidious broth (Remel #R07664). For preparation of assay inoculum, a direct suspension was prepared by aseptically swabbing 10-15 colonies from agar plates into culture tubes containing 2 mL of fresh sterile saline. After the dilution plates were set up, direct suspensions were then diluted in a cuvette containing sterile saline and the optical density was measured at 600 nm. Inocula were diluted such that 75 μL of this culture in Fastidious broth results in a starting bacterial concentration of 5×10^5 CFU/mL when added to the dilution plates. The plates were incubated for ˜24 hours at 36° C. and 5% CO2.

N. gonorrhoeae WHO X = experiment: Liquid broth MIC in Fastidious broth; settings: Neisseria gonorrhoeae, read-out: Minimum Inhibitory Concentration (MIC), N. gonorrhoeae WHO X
Procedure: (§1) Liquid broth-based assays were used for antibacterial testing of PBP inhibitors in Neisseria gonorrhoeae. Briefly, cryo-preserved bacterial cultures of clinical strains were streaked for isolation on Chocolate Agar (72 g/L (2×) GC Agar Base (BD #228950) and 2% (2×) Hemoglobin was autoclaved at 121° C. for 20 minutes to sterilize. Once cooled to ˜50° C. the 2×GC Agar Base and 2× Hemoglobin solutions are combined and 1% IsoVitaleX Enrichment (BD #211876) was added to the solution). Strains were incubated at 36° C. and 5% CO2 to allow growth of colonies, 24 hours before inoculum preparation. 2-fold serial dilutions of test compounds were conducted in a 96 well plate with a final volume of 75 μL per well at 2-fold the final desired concentration in Fastidious broth (Remel #R07664). For preparation of assay inoculum, a direct suspension was prepared by aseptically swabbing 10-15 colonies from agar plates into culture tubes containing 2 mL of fresh sterile saline. After the dilution plates were set up, direct suspensions were then diluted in a cuvette containing sterile saline and the optical density was measured at 600 nm. Inocula were diluted such that 75 μL of this culture in Fastidious broth results in a starting bacterial concentration of 5×10^5 CFU/mL when added to the dilution plates. The plates were incubated for ˜24 hours at 36° C. and 5% CO2.

E. coli ATCC 25922 = experiment: microbe, parasite or virus in culture; assay type: cell-based; settings: Escherichia coli, ATCC25922, read-out: MIC E. coli 25922
E. coli AG100A = experiment: Broth microdilution MIC in CAMHB; assay type: cell-based; settings: Escherichia coli, read-out: MIC E. coli AG100A
N. gonorrhoeae WHO Q = experiment: Liquid broth MIC in Fastidious broth; settings: Neisseria gonorrhoeae, read-out: Minimum Inhibitory Concentration (MIC), N. gonorrhoeae WHO Q
[1] = molecular target: T1, PBP3 from Pseudomonas aeruginosa (PAO1) (Pseudomonas aeruginosa, UniProt G3XD46); experiment: Bocillin-FL fluorescence polarization competition binding, P. aeruginosa PBP3; settings: Binding affinity to P. aeruginosa PBP3; fluorescence polarization competition binding assay using Bocillin-FL; read-out: P. aeruginosa PBP3 Potency
T1 construct: made in house
T1 sequence (G3XD46 whole entry): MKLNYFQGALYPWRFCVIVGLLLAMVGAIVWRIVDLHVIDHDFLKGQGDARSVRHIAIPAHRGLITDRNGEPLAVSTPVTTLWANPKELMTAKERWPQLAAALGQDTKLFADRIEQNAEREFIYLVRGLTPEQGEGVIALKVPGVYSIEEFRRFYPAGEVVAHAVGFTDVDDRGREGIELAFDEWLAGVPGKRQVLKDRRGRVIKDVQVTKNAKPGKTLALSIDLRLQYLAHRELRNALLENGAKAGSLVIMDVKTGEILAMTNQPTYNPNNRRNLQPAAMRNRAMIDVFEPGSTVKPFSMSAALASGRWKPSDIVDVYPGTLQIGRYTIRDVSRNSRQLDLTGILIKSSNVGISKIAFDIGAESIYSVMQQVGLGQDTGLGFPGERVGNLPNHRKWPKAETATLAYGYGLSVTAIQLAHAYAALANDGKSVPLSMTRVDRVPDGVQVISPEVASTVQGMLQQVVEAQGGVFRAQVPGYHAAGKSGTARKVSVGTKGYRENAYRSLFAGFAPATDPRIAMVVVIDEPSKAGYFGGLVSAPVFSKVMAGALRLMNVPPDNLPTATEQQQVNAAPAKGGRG
Summary of the method: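 Purified PBP was preincubated with inhibitor (E. coli PBP3 1.5 μM, 30 min; P. aeruginosa PBP3 0.75 μM, A. baumannii PBP3 0.2 μM and PBP1a 1 μM, 15 min), then Bocillin-FL (0.1 μM; 0.05 μM for PBP1a) added and FP read up to 60 min. EC50 = 50% loss of bound probe.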

E. coli D22 = experiment: microbe, parasite or virus in culture; assay type: cell-based; settings: Escherichia coli, D22, read-out: MIC E. coli D22
N. gonorrhoeae WHO M = experiment: Liquid broth MIC in Fastidious broth; settings: Neisseria gonorrhoeae, read-out: Minimum Inhibitory Concentration (MIC), N. gonorrhoeae WHO M
Procedure: as §1

K. pneumoniae SI-117 = experiment: microbe, parasite or virus in culture; assay type: cell-based; settings: Klebsiella pneumoniae, SI117, read-out: MIC K. pneumoniae SI-117
N. gonorrhoeae CDC-0197 = experiment: Liquid broth MIC in Fastidious broth; settings: Neisseria gonorrhoeae, CDC0197, read-out: Minimum Inhibitory Concentration (MIC), N. gonorrhoeae CDC-0197
N. gonorrhoeae FA1090 = experiment: Liquid broth MIC in Fastidious broth; settings: Neisseria gonorrhoeae, FA1090, read-out: Minimum Inhibitory Concentration (MIC), N. gonorrhoeae FA 1090
P. aeruginosa ATCC 35151 = experiment: microbe, parasite or virus in culture; assay type: cell-based; settings: Pseudomonas aeruginosa, ATCC35151, read-out: MIC P. aeruginosa ATCC 35151
[2] = test system: N. gonorrhoeae ATCC 49226; experiment: Liquid broth MIC in Fastidious broth; settings: Neisseria gonorrhoeae, ATCC49226, read-out: Minimum Inhibitory Concentration (MIC), N. gonorrhoeae ATCC 49226
[3] = test system: P. aeruginosa (ΔmexAB-oprM); experiment: Broth microdilution MIC in CAMHB; assay type: cell-based; settings: Pseudomonas aeruginosa; read-out: MIC P. aeruginosa ΔmexAB-oprM
N. gonorrhoeae WHO K = experiment: Liquid broth MIC in Fastidious broth; settings: Neisseria gonorrhoeae, read-out: Minimum Inhibitory Concentration (MIC), N. gonorrhoeae WHO K
Procedure: as §1

K. pneumoniae 848844 = experiment: microbe, parasite or virus in culture; assay type: cell-based; settings: Klebsiella pneumoniae, 848844, read-out: MIC K. pneumoniae 848844

Row | SMILES | MIC (N. gonorrhoeae WHO G) [µg/mL] | MIC (N. gonorrhoeae WHO X) [µg/mL] | MIC (E. coli ATCC 25922) [µg/mL] | MIC (E. coli AG100A) [µg/mL] | MIC (N. gonorrhoeae WHO Q) [µg/mL] | pIC50 [1] | MIC (E. coli D22) [µg/mL] | MIC (N. gonorrhoeae WHO M) [µg/mL] | MIC (K. pneumoniae SI-117) [µg/mL] | MIC (N. gonorrhoeae CDC-0197) [µg/mL] | MIC (N. gonorrhoeae FA1090) [µg/mL] | MIC (P. aeruginosa ATCC 35151) [µg/mL] | MIC [2] [µg/mL] | MIC [3] [µg/mL] | MIC (N. gonorrhoeae WHO K) [µg/mL] | MIC (K. pneumoniae 848844) [µg/mL]
1 | CCN1CCN(C(=O)N[C@H](C(=O)N[C@H]2Cc3ccc(F)c(C(=O)O)c3OB2O)c2ccc(P(=O)(O)O)cc2)C(=O)C1=O (single isomer, unassigned) [Example 9] | < 1 | 1 to 2 (≈ 1.65 to 3.3 µM) | > 128 | > 128 | 1 to 2 (≈ 1.65 to 3.3 µM) | 4.30 to 5.00 | 32 to 64 (≈ 52.8 to 106 µM) | < 1 | > 128 | < 1 | < 1 | 8 to 16 (≈ 13.2 to 26.4 µM) | 1 to 2 (≈ 1.65 to 3.3 µM) | > 128 | 1 to 2 (≈ 1.65 to 3.3 µM) | > 128
2 | CCN1CCN(C(=O)N[C@@H](C(=O)N[C@H]2Cc3ccc(F)c(C(=O)O)c3OB2O)c2ccc(P(=O)(O)O)cc2)C(=O)C1=O (single isomer, unassigned) [Example 10] | < 1 | < 1 | > 128 | 32 to 64 (≈ 52.8 to 106 µM) | < 1 | > 5.00 | 8 to 16 (≈ 13.2 to 26.4 µM) | < 1 | > 128 | < 1 | < 1 | < 1 | < 1 | 32 to 64 (≈ 52.8 to 106 µM) | < 1 | > 128
3 | CS(=O)(=O)N1CCN(C(=O)N[C@@H](C(=O)N[C@H]2Cc3cccc(C(=O)O)c3OB2O)c2ccc(P(=O)(O)O)c(F)c2F)C1=O (single isomer, unassigned) [Example 13] | < 1 | < 1 | > 128 | 8 to 16 (≈ 12.4 to 24.8 µM) | < 1 | > 5.00 | 8 to 16 (≈ 12.4 to 24.8 µM) | < 1 | > 128 | < 1 | < 1 | 2 to 4 (≈ 3.09 to 6.19 µM) | < 1 | 32 to 64 (≈ 49.5 to 99 µM) | < 1 | > 128
4 | CS(=O)(=O)N1CCN(C(=O)N[C@@H](C(=O)N[C@H]2Cc3cccc(C(=O)O)c3OB2O)c2ccc(P(=O)(O)O)c(F)c2)C1=O (single isomer, unassigned) [Example 15] | < 1 | < 1 | 32 to 64 (≈ 50.9 to 102 µM) | 8 to 16 (≈ 12.7 to 25.5 µM) | < 1 | > 5.00 | 2 to 4 (≈ 3.18 to 6.37 µM) | < 1 | > 128 | < 1 | < 1 | 2 to 4 (≈ 3.18 to 6.37 µM) | < 1 | 32 to 64 (≈ 50.9 to 102 µM) | < 1 | > 128
5 | CS(=O)(=O)N1CCN(C(=O)N[C@@H](C(=O)N[C@H]2Cc3cccc(C(=O)O)c3OB2O)c2cc(F)c(P(=O)(O)O)c(F)c2)C1=O (single isomer, unassigned) [Example 18] | < 1 | < 1 | 32 to 64 (≈ 49.5 to 99 µM) | 8 to 16 (≈ 12.4 to 24.8 µM) | < 1 | > 5.00 | 8 to 16 (≈ 12.4 to 24.8 µM) | < 1 | > 128 | < 1 | < 1 | 2 to 4 (≈ 3.09 to 6.19 µM) | < 1 | 32 to 64 (≈ 49.5 to 99 µM) | < 1 | > 128
6 | CS(=O)(=O)N1CCN(C(=O)N[C@@H](C(=O)N[C@H]2Cc3ccc(F)c(C(=O)O)c3OB2O)c2ccc(P(=O)(O)O)c(F)c2)C1=O (single isomer, unassigned) [Example 19] | < 1 | < 1 | > 128 | 32 to 64 (≈ 49.5 to 99 µM) | < 1 | > 5.00 | 8 to 16 (≈ 12.4 to 24.8 µM) | < 1 | > 128 | < 1 | < 1 | 2 to 4 (≈ 3.09 to 6.19 µM) | < 1 | 32 to 64 (≈ 49.5 to 99 µM) | < 1 | > 128
7 | CCN1CCN(C(=O)N[C@@H](C(=O)N[C@H]2Cc3cccc(C(=O)O)c3OB2O)c2ccc(P(C)(=O)O)cc2)C(=O)C1=O (single isomer, unassigned) [Example 47] | < 1 | 4 to 8 (≈ 6.82 to 13.6 µM) | 8 to 16 (≈ 13.6 to 27.3 µM) | 8 to 16 (≈ 13.6 to 27.3 µM) | 1 to 2 (≈ 1.71 to 3.41 µM) | > 5.00 | 2 to 4 (≈ 3.41 to 6.82 µM) | < 1 | > 128 | 1 to 2 (≈ 1.71 to 3.41 µM) | < 1 | < 1 | < 1 | 8 to 16 (≈ 13.6 to 27.3 µM) | 4 to 8 (≈ 6.82 to 13.6 µM) | > 128
8 | N[C@@H](C(=O)N[C@H]1Cc2cccc(C(=O)O)c2OB1O)c1ccc(P(=O)(O)O)cc1 (single isomer, unassigned) [Example 171] | > 64 | > 64 | > 128 | > 128 | > 64 | < 3.60 | > 128 | > 64 | > 128 | > 64 | > 64 | > 128 | > 64 | > 128 | > 64 | > 128
9 | O=C(O)c1cccc2c1OB(O)[C@@H](NC(=O)[C@@H](NC(=O)c1ccn[nH]c1=O)c1ccc(P(=O)(O)O)cc1)C2 (single isomer, unassigned) [Example 177] | < 1 | 16 to 32 (≈ 29.5 to 59 µM) | > 128 | > 128 | 4 to 8 (≈ 7.38 to 14.8 µM) | > 5.00 | 32 to 64 (≈ 59 to 118 µM) | < 1 | > 128 | 1 to 2 (≈ 1.84 to 3.69 µM) | < 1 | 2 to 4 (≈ 3.69 to 7.38 µM) | 1 to 2 (≈ 1.84 to 3.69 µM) | > 128 | 4 to 8 (≈ 7.38 to 14.8 µM) | > 128
10 | O=C(O)c1cccc2c1OB(O)[C@@H](NC(=O)[C@H](NC(=O)c1ccn[nH]c1=O)c1ccc(P(=O)(O)O)cc1)C2 (single isomer, unassigned) [Example 178] | < 1 | 4 to 8 (≈ 7.38 to 14.8 µM) | > 128 | 32 to 64 (≈ 59 to 118 µM) | 1 to 2 (≈ 1.84 to 3.69 µM) | > 5.00 | 2 to 4 (≈ 3.69 to 7.38 µM) | < 1 | > 128 | < 1 | < 1 | < 1 | < 1 | 8 to 16 (≈ 14.8 to 29.5 µM) | 1 to 2 (≈ 1.84 to 3.69 µM) | > 128
11 | Cn1cccc(C(=O)N[C@H](C(=O)N[C@H]2Cc3cccc(C(=O)O)c3OB2O)c2ccc(P(=O)(O)O)cc2)c1=O (single isomer, unassigned) [Example 181] | 4 to 8 (≈ 7.2 to 14.4 µM) | 16 to 32 (≈ 28.8 to 57.6 µM) | > 128 | > 128 | 16 to 32 (≈ 28.8 to 57.6 µM) | 3.60 to 4.30 | > 128 | 16 to 32 (≈ 28.8 to 57.6 µM) | > 128 | 16 to 32 (≈ 28.8 to 57.6 µM) | 1 to 2 (≈ 1.8 to 3.6 µM) | 8 to 16 (≈ 14.4 to 28.8 µM) | 16 to 32 (≈ 28.8 to 57.6 µM) | > 128 | 16 to 32 (≈ 28.8 to 57.6 µM) | > 128
12 | Cn1cccc(C(=O)N[C@@H](C(=O)N[C@H]2Cc3cccc(C(=O)O)c3OB2O)c2ccc(P(=O)(O)O)cc2)c1=O (single isomer, unassigned) [Example 182] | < 1 | 16 to 32 (≈ 28.8 to 57.6 µM) | > 128 | 32 to 64 (≈ 57.6 to 115 µM) | 1 to 2 (≈ 1.8 to 3.6 µM) | > 5.00 | 8 to 16 (≈ 14.4 to 28.8 µM) | < 1 | > 128 | 1 to 2 (≈ 1.8 to 3.6 µM) | < 1 | < 1 | 1 to 2 (≈ 1.8 to 3.6 µM) | 8 to 16 (≈ 14.4 to 28.8 µM) | 4 to 8 (≈ 7.2 to 14.4 µM) | > 128
13 | O=C(O)c1cccc2c1OB(O)[C@@H](NC(=O)[C@@H](NC(=O)c1cccn(C(F)F)c1=O)c1ccc(P(=O)(O)O)cc1)C2 (single isomer, unassigned) [Example 190] | 1 to 2 (≈ 1.69 to 3.38 µM) | 16 to 32 (≈ 27.1 to 54.1 µM) | > 128 | > 128 | 4 to 8 (≈ 6.77 to 13.5 µM) | > 5.00 | 32 to 64 (≈ 54.1 to 108 µM) | 1 to 2 (≈ 1.69 to 3.38 µM) | > 128 | 4 to 8 (≈ 6.77 to 13.5 µM) | < 1 | 2 to 4 (≈ 3.38 to 6.77 µM) | 4 to 8 (≈ 6.77 to 13.5 µM) | 32 to 64 (≈ 54.1 to 108 µM) | 16 to 32 (≈ 27.1 to 54.1 µM) | > 128
